Data taken from patent publication US3997549A, “N-arylsulfenylated derivatives of benzofuranyl methylcarbamates” (priority 1973, dated 1976).
In brackets after ≈: the same amount, converted by molar mass. Like-named read-outs stand apart in the source and are kept apart here.

How the values were obtained:
houseflies = experiment: whole plant or invertebrate; conditions: Musca domestica, topical, 24 h, read-out: Houseflies LD50
Method: Toxicity of the compounds of the present invention to houseflies was tested using the technique described by March and Metcalf in Bull. Calif. State Dept. Agr. […] Adult female houseflies were treated with one drop of acetone solution, applied to the prothorax, using a syringe calibrated to deliver 1.00 ± 0.05 mm^3 drops. Twenty flies were treated at each dosage, each test compound was applied at 8 to 10 dosage levels. Each test was replicated three times. […] A one-inch square of cotton saturated with 40% sugar solution was provided for food in each carton. The cartons of flies were held in a constant temperature chamber at 60° F and 60% relative humidity for 24 hours before mortality counts were made. Flies totally unable to make crawling or walking movements were counted as dead. LD50 values were calculated in the conventional manner.

Culex fatigans = experiment: whole plant or invertebrate; conditions: Culex quinquefasciatus, 24 h, read-out: Mosquitoes LC50
Method: The appropriate amount of stock solution was added with stirring to 100 ml of tap water and 20-25 fourth instar larvae of Culex fatigans were placed in the solution. After twenty-four hours, the counts were taken. Larvae not able to rise to the surface on touch were counted as dead. Each concentration was run in duplicate and each material was run on two or three different days. The average percent mortality was plotted against the logarithm of the concentration (in ppm) and the LC50 value determined by inspection.

in vivo = conditions: mouse, po
Method: Acute oral toxicity of the compounds of the present invention to mice was determined after the manner of Hollingworth, Fukuto, and Metcalf in J. Agr. […] A dose of 0.25 ml of each solution was administered to each of four female white Swiss mice using the "bolus" - tipped syringe. […] Final mortality determinations were made forty-eight hours after treatment.

confused flour beetle [1] = experiment: Initial contact activity, confused flour beetle; assay type: in vivo; conditions: Tribolium confusum, read-out: % Kill, FB (initial contact)
Method: (§1) Initial Contact Activity: One-half gram of test compound was dissolved in 40 ml of acetone and this solution was dispersed in 360 ml of water containing one drop of isooctyl phenyl polyethoxyethanol. An aliquot of this solution was diluted with water to provide a solution containing 1250 ppm of active ingredient. Test organisms and techniques were as follows: The activities against the Mexican bean beetle (Epilachna varivestis Muls.) and the southern army worm (Prodenia eridania [Cram.]) were evaluated by dipping the leaves of pinto bean plants into the test solution and infesting the leaves with the appropriate immature form insects when the foliage had dried; the activity against the pea aphid (Macrosiphum pisi [Harris]) was evaluated on broad bean plants whose leaves were dipped before infestation with adult aphids; the activity against the two-spotted spider mite (Tetranychus urticae [L.]) was evaluated on pinto bean plants whose leaves were dipped after infestation with adult mites; the activities against the milkweed bug (Oncopeltus fascinatus [Dallas]) and the plum curculio (Conotrachelus nenuphar [Herbst]) were evaluated by spraying the test solutions into glass dishes containing the adult insects; the activities against the granary weevil (Sitophilus granarius [L.]) and the confused flour beetle (Tribolium confusum [duVal]) were evaluated by introducing the insects into glass dishes which had been previously sprayed with test solution and allowed to dry. All organisms in the test were maintained in a holding room at 80° F. and 50% relative humidity for an exposure period of forty-eight hours. At this time the number of dead and living insects were counted and the percent kill was calculated.

confused flour beetle [2] = experiment: Residual contact activity, confused flour beetle; assay type: in vivo; conditions: Tribolium confusum, 48 h, read-out: % Kill, FB (residual contact)
Method: as §1
The residual contact activity of the compounds was determined on the same organisms using the technique described above, except that in each case the treated surface was allowed to dry and was exposed to normal light and air for seven days before introduction of the mites or insects. The compounds show a high order of residual activity toward the test insects.

southern army worm [3] = conditions: 2880 min
Mexican bean beetle [4] = experiment: whole plant or invertebrate; conditions: Epilachna varivestis, 48 h, read-out: % Kill, BB (systemic)
pea aphid [5] = experiment: whole plant or invertebrate; conditions: Acyrthosiphon pisum, 48 h, read-out: % Kill, PA (systemic)
two-spotted spider mite [6] = experiment: whole plant or invertebrate; conditions: Tetranychus urticae, 48 h, read-out: % Kill, SM (systemic)
pea aphid [7] = experiment: Initial contact activity, pea aphid; conditions: Acyrthosiphon pisum, 48 h, read-out: % Kill, PA (initial contact)
pea aphid [8] = experiment: Residual contact activity, pea aphid; conditions: Acyrthosiphon pisum, 48 h, read-out: % Kill, PA (residual contact)
milkweed bug [9] = experiment: Initial contact activity, milkweed bug; conditions: Oncopeltus fasciatus, 48 h, read-out: % Kill, MWB (initial contact)
plum curculio [10] = experiment: Initial contact activity, plum curculio; conditions: Conotrachelus nenuphar, 48 h, read-out: % Kill, PC (initial contact)
milkweed bug [11] = experiment: Residual contact activity, milkweed bug; conditions: Oncopeltus fasciatus, 48 h, read-out: % Kill, MWB (residual contact)
granary weevil [12] = experiment: Initial contact activity, granary weevil; conditions: Sitophilus granarius, 48 h, read-out: % Kill, GW (initial contact)
plum curculio [13] = experiment: Residual contact activity, plum curculio; conditions: Conotrachelus nenuphar, 48 h, read-out: % Kill, PC (residual contact)
granary weevil [14] = experiment: Residual contact activity, granary weevil; conditions: Sitophilus granarius, 48 h, read-out: % Kill, GW (residual contact)
southern army worm [15] = experiment: Initial contact activity, southern army worm; conditions: 1250 ppm, 48 h exposure
Mexican bean beetle [16] = experiment: Initial contact activity, Mexican bean beetle; conditions: Epilachna varivestis, 48 h, read-out: % Kill, BB (initial contact)
southern army worm [17] = experiment: Residual contact activity, southern army worm; conditions: 1250 ppm; 7 days; 2880 min
Mexican bean beetle [18] = experiment: Residual contact activity, Mexican bean beetle; conditions: Epilachna varivestis, 48 h, read-out: % Kill, BB (residual contact)
two-spotted spider mite [19] = experiment: Initial contact activity, two-spotted spider mite; conditions: Tetranychus urticae, 48 h, read-out: % Kill, SM (initial contact)
two-spotted spider mite [20] = experiment: Residual contact activity, two-spotted spider mite; conditions: Tetranychus urticae, 48 h, read-out: % Kill, SM (residual contact)
[21] = 39 ppm soil watering, separate test vs carbofuran

Cc1cc(C(C)(C)C)ccc1SN(C)C(=O)Oc1cccc2c1OC(C)(C)C2 [Example VI, 2,3-Dihydro-2,2-dimethyl-7-benzofuranyl [4-(tert-butyl)-2-methylphenylthio] (methyl)carbamate]
LD50 (houseflies): 7.5 mg/kg | LC50 (Culex fatigans): 2 ng/mL (≈ 0.00501 µM) | LD50 at 48 h (in vivo): 75 to 125 mg/kg | mortality at 1250 ppm (confused flour beetle [1]; 1250 ppm, 48 h exposure): 90% | mortality at 1250 ppm (confused flour beetle [2]; 1250 ppm, 7 days): 100% | % Kill, AW (systemic) (southern army worm [3]; [21]): 0% | % Kill, AW (systemic) (southern army worm [3]; 156 ppm soil watering): 0% | mortality at 39 ppm (Mexican bean beetle [4]): 85% | mortality at 156 ppm (Mexican bean beetle [4]): 100% | mortality at 39 ppm (pea aphid [5]): 35% | mortality at 156 ppm (pea aphid [5]): 95% | mortality at 39 ppm (two-spotted spider mite [6]): 11% | mortality at 156 ppm (two-spotted spider mite [6]): 6% | mortality at 1250 ppm (pea aphid [7]): 0% | mortality at 1250 ppm (pea aphid [8]): 0% | mortality at 1250 ppm (milkweed bug [9]): 100% | mortality at 1250 ppm (plum curculio [10]): 100% | mortality at 1250 ppm (milkweed bug [11]): 95% | mortality at 1250 ppm (granary weevil [12]): 100% | mortality at 1250 ppm (plum curculio [13]): 53% | mortality at 1250 ppm (granary weevil [14]): 100% | % Kill, AW (initial contact) (southern army worm [15]): 95% | mortality at 1250 ppm (Mexican bean beetle [16]): 100% | % Kill, AW (residual contact) (southern army worm [17]): 100% | mortality at 1250 ppm (Mexican bean beetle [18]): 100% | mortality at 1250 ppm (two-spotted spider mite [19]): 77% | mortality at 1250 ppm (two-spotted spider mite [20]): 7%

Cc1cccc(SN(C)C(=O)Oc2cccc3c2OC(C)(C)C3)c1 [Example X, 2,3-Dihydro-2,2-dimethyl-7-benzofuranyl (3-methylphenylthio)(methyl)carbamate]
LD50 (houseflies): 6.5 mg/kg | LC50 (Culex fatigans): 4 ng/mL (≈ 0.0116 µM) | LD50 at 48 h (in vivo): 25 to 50 mg/kg | mortality at 1250 ppm (confused flour beetle [1]; 1250 ppm, 48 h exposure): 100% | mortality at 1250 ppm (confused flour beetle [2]; 1250 ppm, 7 days): 100% | % Kill, AW (systemic) (southern army worm [3]; [21]): 100% | % Kill, AW (systemic) (southern army worm [3]; 156 ppm soil watering): 100% | mortality at 39 ppm (Mexican bean beetle [4]): 100% | mortality at 156 ppm (Mexican bean beetle [4]): 100% | mortality at 39 ppm (pea aphid [5]): 100% | mortality at 156 ppm (pea aphid [5]): 100% | mortality at 39 ppm (two-spotted spider mite [6]): 26% | mortality at 156 ppm (two-spotted spider mite [6]): 28% | mortality at 1250 ppm (pea aphid [7]): 100% | mortality at 1250 ppm (pea aphid [8]): 100% | mortality at 1250 ppm (milkweed bug [9]): 100% | mortality at 1250 ppm (plum curculio [10]): 100% | mortality at 1250 ppm (milkweed bug [11]): 100% | mortality at 1250 ppm (granary weevil [12]): 100% | mortality at 1250 ppm (plum curculio [13]): 95% | mortality at 1250 ppm (granary weevil [14]): 100% | % Kill, AW (initial contact) (southern army worm [15]): 100% | mortality at 1250 ppm (Mexican bean beetle [16]): 100% | % Kill, AW (residual contact) (southern army worm [17]): 100% | mortality at 1250 ppm (Mexican bean beetle [18]): 100% | mortality at 1250 ppm (two-spotted spider mite [19]): 100% | mortality at 1250 ppm (two-spotted spider mite [20]): 30%

Cc1ccc(SN(C)C(=O)Oc2cccc3c2OC(C)(C)C3)cc1 [IV, 2,3-Dihydro-2,2-dimethyl-7-benzofuranyl(methyl)(4-methylphenylthio)carbamate]
LD50 (houseflies): 9 mg/kg | LC50 (Culex fatigans): 4.5 ng/mL (≈ 0.0131 µM) | LD50 at 48 h (in vivo): 100 to 125 mg/kg | mortality at 1250 ppm (confused flour beetle [1]; 48 h): 100% | mortality at 1250 ppm (confused flour beetle [2]): 92% | % Kill, AW (systemic) (southern army worm [3]; [21]): 100% | % Kill, AW (systemic) (southern army worm [3]; 156 ppm soil watering): 100% | mortality at 39 ppm (Mexican bean beetle [4]): 100% | mortality at 156 ppm (Mexican bean beetle [4]): 100% | mortality at 39 ppm (pea aphid [5]): 100% | mortality at 39 ppm (two-spotted spider mite [6]): 24% | mortality at 156 ppm (two-spotted spider mite [6]): 64% | mortality at 1250 ppm (milkweed bug [9]): 100% | mortality at 1250 ppm (plum curculio [10]): 100% | mortality at 1250 ppm (milkweed bug [11]): 100% | mortality at 1250 ppm (granary weevil [12]): 100% | mortality at 1250 ppm (plum curculio [13]): 100% | mortality at 1250 ppm (granary weevil [14]): 100% | % Kill, AW (initial contact) (southern army worm [15]): 100% | mortality at 1250 ppm (Mexican bean beetle [16]): 100% | % Kill, AW (residual contact) (southern army worm [17]): 100% | mortality at 1250 ppm (Mexican bean beetle [18]): 100% | mortality at 1250 ppm (two-spotted spider mite [19]): 100% | mortality at 1250 ppm (two-spotted spider mite [20]): 94%
